Assay results published in patent US20150065345A1, “1,2,4 - TRIAZOLE DERIVATIVES AS HERBICIDALS” (SYNGENTA LIMITED, priority 2012, published 2015).

How the values were obtained:
Assay type in all cases: in vivo
Settings in all cases: 1000 g/h, evaluated after 13 days, five point scale
Lolium perenne (LOLPE) [1] = assay: Glasshouse herbicide test, pre-emergence
Experimental: (§1) Seeds of a variety of test species are sown in standard soil in pots Alopecurus myosuroides (ALOMY), Amaranthus retoflexus (AMARE), Setaria faberi (SETFA), Echinochloa crus-galli (ECHCG), Lolium perenne (LOLPE), Solanum nigrum (SOLNI), Stellaria media (STEME) and Digitaria sanguinalis (DIGSA). After cultivation for one day (pre-emergence) or after 8 days cultivation (post-emergence) under controlled conditions in a glasshouse (at 24/16° C., day/night; 14 hours light; 65% humidity), the plants are sprayed with an aqueous spray solution derived from the formulation of the technical active ingredient in acetone/water (50:50) solution containing 0.5% Tween 20 (polyoxyethelyene sorbitan monolaurate, CAS RN 9005-64-5). Compounds are applied at 1000 g/h. The test plants are then grown in a glasshouse under controlled conditions in a glasshouse (at 24/16° C., day/night; 14 hours light; 65% humidity) and watered twice daily. After 13 days for pre and post-emergence, the test is evaluated for the percentage damage caused to the plant. The biological activities are shown in the following table on a five point scale (5=80-100%; 4=60-79%; 3=40-59%; 2=20-39%; 1=0-19%).

Stellaria media (STEME) [2] = assay: Glasshouse herbicide test, pre-emergence
Experimental: as §1

[3] = tested on: Digitaria sanguinalis (DIGSA); assay: Glasshouse herbicide test, pre-emergence
Experimental: as §1

[4] = tested on: Amaranthus retoflexus (AMARE); assay: Glasshouse herbicide test, pre-emergence
Experimental: as §1

Lolium perenne (LOLPE) [5] = assay: Glasshouse herbicide test, post-emergence
Experimental: as §1

Stellaria media (STEME) [6] = assay: Glasshouse herbicide test, post-emergence
Experimental: as §1

[7] = tested on: Digitaria sanguinalis (DIGSA); assay: Glasshouse herbicide test, post-emergence
Experimental: as §1

[8] = tested on: Amaranthus retoflexus (AMARE); assay: Glasshouse herbicide test, post-emergence
Experimental: as §1

Setaria faberi (SETFA) [9] = assay: Glasshouse herbicide test, pre-emergence
Experimental: as §1

Solanum nigrum (SOLNI) [10] = assay: Glasshouse herbicide test, pre-emergence
Experimental: as §1

IPOHE [11] = assay: Glasshouse herbicide test, pre-emergence
Experimental: [The procedure below names another species; the source lists this species under the same test.] as §1

[12] = tested on: Echinochloa crus-galli (ECHCG); assay: Glasshouse herbicide test, pre-emergence
Experimental: as §1

[13] = tested on: Alopecurus myosuroides (ALOMY); assay: Glasshouse herbicide test, pre-emergence
Experimental: as §1

Setaria faberi (SETFA) [14] = assay: Glasshouse herbicide test, post-emergence
Experimental: as §1

Solanum nigrum (SOLNI) [15] = assay: Glasshouse herbicide test, post-emergence
Experimental: as §1

IPOHE [16] = assay: Glasshouse herbicide test, post-emergence
Experimental: [The procedure below names another species; the source lists this species under the same test.] as §1

[17] = tested on: Echinochloa crus-galli (ECHCG); assay: Glasshouse herbicide test, post-emergence
Experimental: as §1

[18] = tested on: Alopecurus myosuroides (ALOMY); assay: Glasshouse herbicide test, post-emergence
Experimental: as §1

Cn1cnnc1NC(=O)c1ccc(S(C)(=O)=O)c(COCC(F)(F)F)c1Cl [Compound 1.001]
percentage damage caused to the plant, LOLPE, PRE Application (Lolium perenne (LOLPE) [1]): 1 (1=0-19%) | percentage damage caused to the plant, STEME, PRE Application (Stellaria media (STEME) [2]): 1 (1=0-19%) | percentage damage caused to the plant, DIGSA, PRE Application [3]: 1 (1=0-19%) | percentage damage caused to the plant, AMARE, PRE Application [4]: 3 (3=40-59%) | percentage damage caused to the plant, LOLPE, POST Application (Lolium perenne (LOLPE) [5]): 1 (1=0-19%) | percentage damage caused to the plant, STEME, POST Application (Stellaria media (STEME) [6]): 5 (5=80-100%) | percentage damage caused to the plant, DIGSA, POST Application [7]: 5 (5=80-100%) | percentage damage caused to the plant, AMARE, POST Application [8]: 5 (5=80-100%)

CCc1nnc(NC(=O)c2ccc(C(F)(F)F)cc2S(C)(=O)=O)n1C [Compound 1.010]
percentage damage caused to the plant, SETFA, PRE Application (Setaria faberi (SETFA) [9]): 1 (1=0-19%) | percentage damage caused to the plant, SOLNI, PRE Application (Solanum nigrum (SOLNI) [10]): 1 (1=0-19%) | percentage damage caused to the plant, IPOHE, PRE Application (IPOHE [11]): 1 (1=0-19%) | percentage damage caused to the plant, AMARE, PRE Application ([4]; second table): 1 (1=0-19%) | percentage damage caused to the plant, ECHCG, PRE Application [12]: 1 (1=0-19%) | percentage damage caused to the plant, ALOMY, PRE Application [13]: 1 (1=0-19%) | percentage damage caused to the plant, SETFA, POST Application (Setaria faberi (SETFA) [14]): 2 (2=20-39%) | percentage damage caused to the plant, SOLNI, POST Application (Solanum nigrum (SOLNI) [15]): 2 (2=20-39%) | percentage damage caused to the plant, IPOHE, POST Application (IPOHE [16]): 2 (2=20-39%) | percentage damage caused to the plant, AMARE, POST Application ([8]; second table): 1 (1=0-19%) | percentage damage caused to the plant, ECHCG, POST Application [17]: 2 (2=20-39%) | percentage damage caused to the plant, ALOMY, POST Application [18]: 2 (2=20-39%)
